Blank lines part the entries; values can stand above or below the molecule they belong to.
Legend:
[1] = system: L1210; assay: In vitro inhibitory concentration against L1210 leukemia cell line for antiproliferative activity; format: functional, cell-based; settings: Mus musculus
[2] = system: L1210; assay: Effect in the G2/M phase of L1210 leukemia cell with a significant percentage of cells having 8N DNA content at 5 uM; format: functional, Mus musculus
[3] = system: L1210; assay: Effect in the G2/M phase of L1210 leukemia cell with a significant percentage of cells having 8N DNA content at 0.5 uM; format: functional, Mus musculus
[4] = system: L1210; assay: Effect in the G1 phase of L1210 leukemia cell at 50 uM; format: functional, Mus musculus
[5] = system: OVCAR-3; assay: Tested for antiproliferative activity against Ovcar-3 tumoral cell line; format: functional, cell-based; settings: Homo sapiens
[6] = system: P388/VCR-20; assay: Tested for antiproliferative activity against VCR-20 tumoral cell line; format: functional, cell-based; settings: Mus musculus
[7] = system: A2780; assay: Tested for antiproliferative activity against A-2780 tumoral cell line; format: functional, cell-based; settings: Homo sapiens
[8] = system: NCI-H69; assay: Tested for antiproliferative activity against H-69 tumoral cell line; format: functional, cell-based; settings: Homo sapiens
[9] = system: DU-145; assay: Tested for antiproliferative activity against DU145 tumoral cell line; format: functional, cell-based; settings: Homo sapiens
[10] = system: KB; assay: Tested for antiproliferative activity against KB-A1 tumoral cell line; format: functional, cell-based; settings: Homo sapiens
[11] = Concentration required to alter the assembly reaction of microtubules without any depolymerization effect; format: functional
[12] = system: KB 3-1; assay: Tested for antiproliferative activity against KB 3-1 tumoral cell line; format: functional, cell-based; settings: Homo sapiens
[13] = system: L1210; assay: Tested for antiproliferative activity against L1210 tumoral cell line; format: functional, cell-based; settings: Mus musculus
[14] = system: B16; assay: Tested for antiproliferative activity against B16 tumoral cell line; format: functional, cell-based; settings: Mus musculus
[15] = system: P388; assay: Tested for antiproliferative activity against P388 tumoral cell line; format: functional, cell-based; settings: Mus musculus
[16] = system: EKVX; assay: Tested for cytostatic activity against non small cell lung(NSCL) EKVX cell line of NCI 60 tumor cell line panel; format: functional; settings: Homo sapiens
[17] = system: Hs-578T; assay: Tested for cytostatic activity against Breast Hs 578.T cell line of NCI 60 tumor cell line panel; format: functional; settings: Homo sapiens
[18] = system: SF-295; assay: Tested for cytostatic activity against Central nervous system SF-295 cell line of NCI 60 tumor cell line panel; format: functional; settings: Homo sapiens
[19] = system: OVCAR-3; assay: Tested for cytostatic activity against Ovarian OVCAR-3 cell line of NCI 60 tumor cell line panel; format: functional; settings: Homo sapiens
[20] = system: MOLT-4; assay: Tested for cytostatic activity against Leukemia MOLT-4 cell line of NCI 60 tumor cell line panel; format: functional; settings: Homo sapiens
[21] = system: A498; assay: Tested for cytostatic activity against Renal A-498 cell line of NCI 60 tumor cell line panel; format: functional; settings: Homo sapiens
[22] = system: SK-MEL-2; assay: Tested for cytostatic activity against Melanoma SK-MEL2 cell line of NCI 60 tumor cell line panel; format: functional; settings: Homo sapiens
[23] = system: DU-145; assay: Tested for cytostatic activity against Prostate DU-145 cell line of NCI 60 tumor cell line panel; format: functional; settings: Homo sapiens
[24] = system: HCC 2998; assay: Tested for cytostatic activity against colon HCC2998 cell line of NCI 60 tumor cell line panel; format: functional; settings: Homo sapiens
[25] = system: L1210; assay: Effect in the G2/M phase of L1210 leukemia cell with a significant percentage of cells having 8N DNA content at 1 uM; format: functional, Mus musculus
[26] = system: L1210; assay: Effect in the G2/M phase of L1210 leukemia cell with a significant percentage of cells having 8N DNA content at 25 uM; format: functional, Mus musculus
[27] = system: L1210; assay: Effect in the G2/M phase of L1210 leukemia cell with a significant percentage of cells having 8N DNA content at 10 uM; format: functional, Mus musculus
[28] = Inhibition of tubulin polymerization; format: functional

SMILES: COc1cc(-c2csc3c2-n2cccc2C3=O)cc(OC)c1OC
IC50 [1]: 36.4 µM

SMILES: O=C1c2scc(-c3cccc(O)c3)c2-n2cccc21
IC50 [1]: 29 µM

SMILES: COc1ccccc1-c1csc2c1-n1cccc1C2=O
IC50 [1]: 18.9 µM
Effect [2]: 75%

SMILES: Cc1csc2c1-n1cccc1C2=O
IC50 [1]: > 100 µM

SMILES: O=C1c2scc(-c3ccc(Cl)cc3)c2-n2cccc21
GI50 [16]: 2.51 µM
GI50 [17]: 2 µM
GI50 [18]: > 100 µM
GI50 [19]: > 100 µM
GI50 [20]: 79.4 µM
GI50 [21]: 1 µM
GI50 [22]: > 100 µM
GI50 [23]: > 100 µM
GI50 [24]: > 100 µM

SMILES: CCCOc1ccc(-c2csc3c2-n2cccc2C3=O)cc1
IC50 [1]: 28.1 µM

SMILES: O=C1c2sccc2-n2cccc21
IC50 [1]: > 100 µM

SMILES: O=C1c2scc(-c3ccccc3)c2-n2cccc21
GI50 [16]: 5.01 µM
GI50 [17]: 5.01 µM
GI50 [18]: 20 µM
GI50 [19]: 15.8 µM
GI50 [20]: 12.6 µM
GI50 [21]: 1.58 µM
GI50 [22]: 12.6 µM
GI50 [23]: 25.1 µM
IC50 [1]: 26.7 µM
GI50 [24]: 20 µM

SMILES: O=C1c2scc(-c3ccc(F)cc3)c2-n2cccc21
GI50 [16]: 25.1 µM
GI50 [17]: 20 µM
GI50 [18]: 25.1 µM
GI50 [19]: 50.1 µM
GI50 [20]: 25.1 µM
GI50 [21]: 1.58 µM
GI50 [22]: 31.6 µM
GI50 [23]: 79.4 µM
GI50 [24]: 25.1 µM

SMILES: CCCCOc1ccc(-c2csc3c2-n2cccc2C3=O)cc1
IC50 [1]: 29.6 µM

SMILES: O=C1c2scc(-c3ccc(O)cc3)c2-n2cccc21
IC50 [1]: 30.1 µM

SMILES: COc1cc([C@@H]2c3cc4c(cc3C[C@H]3COC(=O)[C@@H]32)OCO4)cc(OC)c1OC [DESOXYPODOPHYLLOTOXIN]
IC50 [28]: 2.4 µM

More lines, main results first:

IC50 [1]: 0.28 µM
SMILES: O=C1c2scc(-c3ccc(O)c(O)c3)c2-n2cccc21
Effect [3]: 86%

IC50 [1]: 3.7 µM
SMILES: O=C1c2scc(-c3ccccc3O)c2-n2cccc21
Effect [4]: 72%

IC50 [5]: 0.031 µM
IC50 [6]: 0.021 µM
IC50 [7]: 0.041 µM
IC50 [8]: 0.036 µM
IC50 [9]: 0.043 µM
IC50 [10]: 0.015 µM
IC50 [11]: 2.9 µM
IC50 [12]: 0.018 µM
IC50 [13]: 0.015 µM
IC50 [14]: 0.023 µM
IC50 [15]: 0.038 µM
IC50 [1]: 0.015 µM
SMILES: COc1ccc(-c2csc3c2-n2cccc2C3=O)cc1O
Effect [3]: 80%

IC50 [1]: 0.43 µM
SMILES: CCOc1ccc(-c2csc3c2-n2cccc2C3=O)cc1
Effect [25]: 88%

IC50 [1]: 11.7 µM
SMILES: COc1ccc(-c2csc3c2-n2cccc2C3=O)cc1OC
Effect [26]: 86%

IC50 [1]: 8 µM
SMILES: COc1cc(-c2csc3c2-n2cccc2C3=O)ccc1O
Effect [26]: 86%

IC50 [1]: 4.2 µM
SMILES: O=C1c2scc(-c3ccc4c(c3)OCO4)c2-n2cccc21
Effect [27]: 88%

IC50 [1]: 0.19 µM
SMILES: COc1ccc(-c2csc3c2-n2cccc2C3=O)cc1
GI50 [16]: 0.794 µM
GI50 [17]: 0.0501 µM
GI50 [18]: 0.0398 µM
GI50 [19]: 0.0398 µM
GI50 [20]: 0.0398 µM
Effect [3]: 83%
GI50 [21]: 0.631 µM
GI50 [22]: 0.398 µM
GI50 [23]: 0.158 µM
GI50 [24]: 0.316 µM

IC50 [1]: 5.2 µM
SMILES: COc1cccc(-c2csc3c2-n2cccc2C3=O)c1
Effect [26]: 94%

Reference: ChEMBL document CHEMBL1133918, “Design, synthesis and antiproliferative activity of tripentones: a new series of antitubulin agents” (Bioorg Med Chem Lett, 2001)
